“Also recorded” adds a separate entry of the source.
Tests used:
[1] = cited from earlier work
[2] = tested on: rSARS-COV-2mNG; type: cell-based, SARS-COV-2
[3] = tested on: CXCL10 expression; type: cell-based, human

SMILES | solubility in 95% ethanol ([1]; 95% ethanol) | solubility in dimethyl sulfoxide ([1]; dimethyl sulfoxide) | solubility in dimethylformamide ([1]; dimethylformamide) | solubility in methanol ([1]; methanol) | solubility in water ([1]; water) | virus titer (FFA) [2] | CXCL10 expression [3]
CCC(=O)O[C@]1(C(=O)SCF)[C@H](C)C[C@H]2[C@@H]3C[C@H](F)C4=CC(=O)C=C[C@]4(C)[C@@]3(F)[C@@H](O)C[C@@]21C [Fluticasone propionate] | slightly soluble | freely soluble | freely soluble | slightly soluble | practically insoluble |  | 
COc1cc(OC)c2c(=O)cc(-c3cc(C)c(OCCCN4CCN(C)CC4)c(C)c3)oc2c1 [ZL0969] |  |  |  |  |  | significantly reduce virus titer | reduces expression levels of CXCL10; also recorded: reduce CXCL10 expression
